Test results as given in the supplement of paper PMC11451515.

Columns and labels:
Details in all cases: 48 h
P12-Ichikawa [1] = test: AUC of viability dose-response curve (% viability x log10 dose units); higher = less sensitive
In short: (§1)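 Leukemia cells adapted to each medium were seeded in 1536-well plates (500 or 1000 cells/well) and given library compounds in DMSO for 48 h at 37°C. The 11 threefold doses spanned 47 μM to 0.79 nM, and CellTiter-Glo One luminescence was normalised per plate to DMSO and cell-free wells before four-parameter log-logistic fitting on log10 dose. Area under the curve was integrated with the trapezoidal rule, scaling curves above full viability and removing curves that failed quality control.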

NOMO1 [2] = test: as above
In short: as §1

SEM cells [3] = test: as above
In short: as §1

P12-Ichikawa [4] = test: cell viability relative to DMSO control; higher = less cytotoxic
In short: (§2)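 Viability is expressed as a percentage of DMSO wells within each plate, and cell-free wells serve as background. Seeding densities in the 1536-well plates (5 μl) were 500 cells/well for NOMO1 or SEM leukemia cells and 1000 cells/well for P12-Ichikawa. Each line was adapted for at least four passages in each medium. Library compounds in DMSO were pin-dosed at 47 μM to 0.79 nM (11 points, threefold), and CellTiter-Glo One luminescence was read after 48 h at 37°C.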

NOMO1 [5] = test: as above
In short: as §2

SEM cells [6] = test: as above
In short: as §2

CN1C(=O)c2sccc2N(C)c2nc(Nc3ccc([S+](N)(=O)[O-])cc3)ncc21
AUC of viability dose-response curve
Details	NOMO1 [2]	P12-Ichikawa [1]	SEM cells [3]
HPLM + 10% dialyzed FBS	379	343	345
RPMI 5 mM glucose + 10% FBS	390	349	348
RPMI 5 mM glucose + 10% dialyzed FBS	378	355	348

cell viability [%]
Details	NOMO1 [5]	P12-Ichikawa [4]	SEM cells [6]
HPLM + 10% dialyzed FBS, 0.000781 µM	113	91.5	94.1
HPLM + 10% dialyzed FBS, 0.00234 µM	100	94	93.2
HPLM + 10% dialyzed FBS, 0.00702 µM	115	95.1	103
HPLM + 10% dialyzed FBS, 0.0211 µM	104	102	102
HPLM + 10% dialyzed FBS, 0.0632 µM	97	101	89.2
HPLM + 10% dialyzed FBS, 0.19 µM	117	96.2	99.6
HPLM + 10% dialyzed FBS, 0.569 µM	105	92.6	88.7
HPLM + 10% dialyzed FBS, 1.71 µM	73.4	75.7	67.8
HPLM + 10% dialyzed FBS, 5.12 µM	60.5	11.4	21.9
HPLM + 10% dialyzed FBS, 15.4 µM	28.5	5.78	9.56
HPLM + 10% dialyzed FBS, 46.1 µM	8.75	5.18	3.55
RPMI 5 mM glucose + 10% FBS, 0.000781 µM	97.2	96.2	–
RPMI 5 mM glucose + 10% FBS, 0.00234 µM	93.2	96	–
RPMI 5 mM glucose + 10% FBS, 0.00702 µM	98.4	98.3	–
RPMI 5 mM glucose + 10% FBS, 0.0211 µM	104	93.4	–
RPMI 5 mM glucose + 10% FBS, 0.0632 µM	106	99.7	–
RPMI 5 mM glucose + 10% FBS, 0.19 µM	90.4	99.7	–
RPMI 5 mM glucose + 10% FBS, 0.569 µM	90	90	–
RPMI 5 mM glucose + 10% FBS, 1.71 µM	92.9	73.6	–
RPMI 5 mM glucose + 10% FBS, 5.12 µM	55.3	17.2	–
RPMI 5 mM glucose + 10% FBS, 15.4 µM	36.4	13.1	–
RPMI 5 mM glucose + 10% FBS, 46.1 µM	7.28	6.79	–
RPMI 5 mM glucose + 10% dialyzed FBS, 0.000781 µM	97.8	98.2	112
RPMI 5 mM glucose + 10% dialyzed FBS, 0.00234 µM	94.7	103	101
RPMI 5 mM glucose + 10% dialyzed FBS, 0.00702 µM	109	104	106
RPMI 5 mM glucose + 10% dialyzed FBS, 0.0211 µM	99.3	99.4	105
RPMI 5 mM glucose + 10% dialyzed FBS, 0.0632 µM	99	98.2	95.6
RPMI 5 mM glucose + 10% dialyzed FBS, 0.19 µM	95.1	88.9	91.4
RPMI 5 mM glucose + 10% dialyzed FBS, 0.569 µM	98.2	95.8	93.7
RPMI 5 mM glucose + 10% dialyzed FBS, 1.71 µM	70.8	64.9	63.6
RPMI 5 mM glucose + 10% dialyzed FBS, 5.12 µM	53.5	23.4	14.8
RPMI 5 mM glucose + 10% dialyzed FBS, 15.4 µM	33.2	14.5	8.42
RPMI 5 mM glucose + 10% dialyzed FBS, 46.1 µM	4.45	9.34	4.39

CC(C)c1onc(-c2c(Cl)cccc2Cl)c1COc1ccc(/C=C/c2cccc(C(=O)O)c2)c(Cl)c1
AUC of viability dose-response curve
Details	NOMO1 [2]	P12-Ichikawa [1]	SEM cells [3]
HPLM + 10% dialyzed FBS	454	450	466
RPMI 5 mM glucose + 10% FBS	447	445	465
RPMI 5 mM glucose + 10% dialyzed FBS	466	452	443

cell viability [%]
Details	HPLM + 10% dialyzed FBS	RPMI 5 mM glucose + 10% FBS	RPMI 5 mM glucose + 10% dialyzed FBS
NOMO1 [5], 0.000781 µM	–	–	128
NOMO1 [5], 0.00234 µM	–	–	124
NOMO1 [5], 0.00702 µM	–	–	124
NOMO1 [5], 0.0211 µM	–	–	139
NOMO1 [5], 0.0632 µM	–	–	114
NOMO1 [5], 0.19 µM	–	–	133
NOMO1 [5], 0.569 µM	–	–	129
NOMO1 [5], 1.71 µM	–	–	132
NOMO1 [5], 5.12 µM	–	–	128
NOMO1 [5], 15.4 µM	–	–	109
NOMO1 [5], 46.1 µM	–	–	107
SEM cells [6], 0.000781 µM	122	117	119
SEM cells [6], 0.00234 µM	130	119	134
SEM cells [6], 0.00702 µM	114	109	120
SEM cells [6], 0.0211 µM	120	128	146
SEM cells [6], 0.0632 µM	121	127	132
SEM cells [6], 0.19 µM	129	120	128
SEM cells [6], 0.569 µM	115	105	118
SEM cells [6], 1.71 µM	116	120	117
SEM cells [6], 5.12 µM	125	115	115
SEM cells [6], 15.4 µM	108	106	104
SEM cells [6], 46.1 µM	91.5	85.7	95.1

COc1ccc(/C=C\c2cc(OC)c(OC)c(OC)c2)cc1NC(=O)[C@H](N)CO
AUC of viability dose-response curve
Details	NOMO1 [2]	P12-Ichikawa [1]	SEM cells [3]
HPLM + 10% dialyzed FBS	209	179	190
RPMI 5 mM glucose + 10% FBS	188	157	167
RPMI 5 mM glucose + 10% dialyzed FBS	206	202	186

cell viability [%], RPMI 5 mM glucose + 10% FBS
Details	P12-Ichikawa [4]	SEM cells [6]
0.000781 µM	121	104
0.00234 µM	144	118
0.00702 µM	125	115
0.0211 µM	50.9	58.1
0.0632 µM	24.6	15
0.19 µM	13.8	11.1
0.569 µM	9.28	14.7
1.71 µM	7.31	7.29
5.12 µM	8.08	6.77
15.4 µM	4.52	3.55
46.1 µM	4.09	3.19

c1ccc(CNc2nc(NCc3ccccc3)c3ccccc3n2)cc1
AUC of viability dose-response curve
Details	NOMO1 [2]	P12-Ichikawa [1]	SEM cells [3]
HPLM + 10% dialyzed FBS	450	473	440
RPMI 5 mM glucose + 10% FBS	466	465	462
RPMI 5 mM glucose + 10% dialyzed FBS	463	465	470

cell viability [%], HPLM + 10% dialyzed FBS
Details	NOMO1 [5]	SEM cells [6]
0.000781 µM	92.7	104
0.00234 µM	114	116
0.00702 µM	144	117
0.0211 µM	121	125
0.0632 µM	138	130
0.19 µM	134	132
0.569 µM	148	136
1.71 µM	158	127
5.12 µM	132	136
15.4 µM	118	133
46.1 µM	5.97	32.5

NC(=O)c1cnccn1
AUC of viability dose-response curve
Details	NOMO1 [2]	P12-Ichikawa [1]	SEM cells [3]
HPLM + 10% dialyzed FBS	464	463	462
RPMI 5 mM glucose + 10% FBS	471	465	461
RPMI 5 mM glucose + 10% dialyzed FBS	457	461	465

cell viability [%]
Details	NOMO1 [5]	SEM cells [6]
HPLM + 10% dialyzed FBS, 0.000781 µM	105	104
HPLM + 10% dialyzed FBS, 0.00234 µM	120	116
HPLM + 10% dialyzed FBS, 0.00702 µM	147	117
HPLM + 10% dialyzed FBS, 0.0211 µM	133	106
HPLM + 10% dialyzed FBS, 0.0632 µM	140	120
HPLM + 10% dialyzed FBS, 0.19 µM	140	120
HPLM + 10% dialyzed FBS, 0.569 µM	143	123
HPLM + 10% dialyzed FBS, 1.71 µM	141	125
HPLM + 10% dialyzed FBS, 5.12 µM	145	119
HPLM + 10% dialyzed FBS, 15.4 µM	126	122
HPLM + 10% dialyzed FBS, 46.1 µM	148	118
RPMI 5 mM glucose + 10% FBS, 0.000781 µM	–	108
RPMI 5 mM glucose + 10% FBS, 0.00234 µM	–	112
RPMI 5 mM glucose + 10% FBS, 0.00702 µM	–	133
RPMI 5 mM glucose + 10% FBS, 0.0211 µM	–	105
RPMI 5 mM glucose + 10% FBS, 0.0632 µM	–	116
RPMI 5 mM glucose + 10% FBS, 0.19 µM	–	129
RPMI 5 mM glucose + 10% FBS, 0.569 µM	–	127
RPMI 5 mM glucose + 10% FBS, 1.71 µM	–	121
RPMI 5 mM glucose + 10% FBS, 5.12 µM	–	119
RPMI 5 mM glucose + 10% FBS, 15.4 µM	–	120
RPMI 5 mM glucose + 10% FBS, 46.1 µM	–	119
